# Assay results: PubChem BioAssay AID1224920 (Broad Institute, 2016)
# Active and inactive are the calls of the source.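 The calls were made as follows: active = IC50 no higher than ten times the top tested dose; inconclusive = flat fit with 30 to 70% inhibition, or poor fit; inactive = IC50 above ten times the top dose.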
# Experiment: growth modulation of Clostridium difficile isolate – OD600, 9-point, retest, dose response (AID 1224920);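 also: plate controls were DMSO for no effect and levofloxacin control for full effect; inhibitors lower culture turbidity so OD600 falls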
# Settings: Clostridium difficile clinical isolate growth, OD600, 24 h
compound,measurement,setting,value
COc1ccccc1-c1ccc(C2[C@@H]3CN(Cc4nccs4)C[C@H]2N3)cc1 (stereo not given in full),"activity change, negative = inhibition",at 68 µM (top of the series),37.9% (inactive)
Cc1ccccc1-c1ccc([C@@H]2[C@@H](CO)N3CCCCN(S(=O)(=O)c4ccc(F)cc4)C[C@H]23)cc1,"activity change, negative = inhibition",at 120 µM (top of the series),-1.33% (inactive)
COc1ccc(-c2ccccc2[C@@H]2[C@@H](C#N)N(C(=O)NC3CCCC3)[C@H]2CO)cc1,"activity change, negative = inhibition",at 68 µM (top of the series),-5% (inactive)
COc1ccccc1-c1ccc2c(c1)[C@@H]1[C@@H](CCN1C(=O)C1CCOCC1)[C@@H](CO)N2,"activity change, negative = inhibition",at 60 µM (top of the series),39.1% (inactive)
O=C(Nc1ccc(F)cc1)N1CCCCN2[C@H](CO)[C@@H](c3ccc(-c4cccc(F)c4)cc3)[C@@H]2C1,"activity change, negative = inhibition",at 120 µM (top of the series),48.5% (inactive)
O=C(Nc1cccc(F)c1)N1CCCCN2[C@H](CO)[C@@H](c3ccc(-c4ccccc4F)cc3)[C@@H]2C1,"activity change, negative = inhibition",at 120 µM (top of the series),39.6% (inactive)
N#C[C@@H]1[C@@H](c2ccccc2-c2cccc(F)c2)[C@H](CO)N1C(=O)NC1CCCC1,"activity change, negative = inhibition",at 120 µM (top of the series),10.6% (inactive)
C/C=C/c1ccc([C@@H]2[C@@H](CO)N(C(=O)CC)[C@@H]2CNC(=O)CC)cc1,"activity change, negative = inhibition",at 120 µM (top of the series),-6.09% (inactive)
CN1c2ccc(-c3ccc(F)cc3)cc2[C@H]2[C@H](CCN2C(=O)Nc2ccc(F)cc2)[C@H]1CO,"activity change, negative = inhibition",at 120 µM (top of the series),43.1% (inactive)
COc1ccc2c3c(n(C)c2c1)[C@H](CO)NCC31CN(Cc2ccc(F)cc2)C1,"activity change, negative = inhibition",at 60 µM (top of the series),7.43% (inactive)
COc1ccc2c3c(n(C)c2c1)[C@@H](CO)N(C(=O)c1ccncc1)CC31CN(C)C1,"activity change, negative = inhibition",at 120 µM (top of the series),3.53% (inactive)
O=C(Nc1ccc(F)cc1)N1[C@@H]2CNC[C@H]1C2c1ccc(-c2ccc(F)cc2)cc1 (stereo not given in full),"activity change, negative = inhibition",at 60 µM (top of the series),14.2% (inactive)
CC(=O)NC[C@@H]1[C@H](c2ccc(-c3cccc(F)c3)cc2)[C@H](CO)N1C(C)=O,"activity change, negative = inhibition",at 120 µM (top of the series),-6.3% (inactive)
CN1c2ccc(Br)cc2[C@@H]2[C@@H](CCN2C(=O)Nc2ccc(F)cc2)[C@H]1CO,"activity change, negative = inhibition",at 120 µM (top of the series),127% (inactive)
O=S(=O)(c1ccccc1)N1CCCCN2[C@H](CO)[C@H](c3ccc(C#Cc4ccccc4)cc3)[C@H]2C1,"activity change, negative = inhibition",at 120 µM (top of the series),27.6% (inactive)
COc1ccc2c3c(n(C)c2c1)[C@H](CO)N(C(=O)Cc1ccccc1)CC31CCN(C)CC1,"activity change, negative = inhibition",at 120 µM (top of the series),8.89% (inactive)
COc1cccc(-c2ccc3c(c2)[C@@H]2[C@@H](CCN2C(=O)Nc2ccccc2OC)[C@@H](CO)N3C)c1,"activity change, negative = inhibition",at 135 µM (top of the series),-19.3% (inactive)
N#C[C@@H]1[C@@H](c2ccccc2-c2ccc(F)cc2)[C@H](CO)N1C(=O)NC1CCCC1,"activity change, negative = inhibition",at 135 µM (top of the series),14% (inactive)
COc1ccc(NC(=O)N2C[C@@H]3N[C@H](C2)C3c2ccc(-c3cccc(OC)c3)cc2)cc1 (stereo not given in full),"activity change, negative = inhibition",at 60 µM (top of the series),28.8% (inactive)
O=C(c1ccc(F)cc1)N1CC[C@@H]2[C@H]1c1cc(C3=CCCCC3)ccc1N[C@@H]2CO,"activity change, negative = inhibition",at 60 µM (top of the series),34.8% (inactive)
CC(=O)N1[C@H](CO)[C@@H](c2ccccc2)[C@H]1CN(C)C(=O)CN1CCOCC1,"activity change, negative = inhibition",at 135 µM (top of the series),-1.86% (inactive)
N#Cc1ccc(-c2ccc(C3[C@H]4CNC[C@@H]3N4C(=O)Nc3ccc(Cl)cc3)cc2)cc1 (stereo not given in full),"activity change, negative = inhibition",at 135 µM (top of the series),25.9% (inactive)
O=C(Cc1ccccc1)N1CC[C@@H]2[C@H](CO)Nc3ccc(C4=CCCCC4)cc3[C@@H]21,"activity change, negative = inhibition",at 68 µM (top of the series),29.4% (inactive)
OC[C@H]1[C@H](c2ccc(-c3ccccc3)cc2)[C@@H]2CN(CCC(F)(F)F)CCCCN12,"activity change, negative = inhibition",at 60 µM (top of the series),31.7% (inactive)
COc1ccc2c3c([nH]c2c1)[C@H](CO)N(C(=O)c1ccccc1)CC31CN(C(=O)Nc2cccc(F)c2)C1,"activity change, negative = inhibition",at 120 µM (top of the series),39% (inactive)
C/C=C/c1ccc([C@@H]2[C@@H](CO)N(Cc3ccccn3)[C@H]2CNC(C)=O)cc1,"activity change, negative = inhibition",at 120 µM (top of the series),-14.5% (inactive)
CCC(=O)N1CC(=O)N2[C@H](CO)[C@@H](c3ccc(C#CC4CCCCC4)cc3)[C@@H]2C1,"activity change, negative = inhibition",at 30 µM (top of the series),-9.02% (inactive)
C[C@H](CO)N1C[C@H](C)[C@H](CN(C)Cc2ccc(Oc3ccccc3)cc2)Oc2ccc(NS(=O)(=O)c3ccccc3)cc2CC1=O,"activity change, negative = inhibition",at 60 µM (top of the series),33.6% (inactive)
C/C=C/c1ccc([C@H]2[C@H](CO)N(C(=O)CC)[C@H]2CNC(=O)CC)cc1,"activity change, negative = inhibition",at 135 µM (top of the series),-9.32% (inactive)
CC(=O)N1[C@H](CN(C)C(=O)CN2CCOCC2)[C@@H](c2ccccc2)[C@@H]1CO,"activity change, negative = inhibition",at 120 µM (top of the series),-1.26% (inactive)
COc1cccc(-c2ccc3c(c2)[C@@H]2[C@@H](CCN2Cc2ccccc2OC)[C@@H](CO)N3)c1,"activity change, negative = inhibition",at 30 µM (top of the series),-7.43% (inactive)
N#C[C@H]1[C@@H](c2ccccc2-c2ccccc2)[C@H](CO)N1C(=O)Cc1ccccc1,"activity change, negative = inhibition",at 120 µM (top of the series),32.6% (inactive)
O=C(Nc1ccccc1F)N1C[C@@H]2N[C@H](C1)C2c1ccc(-c2cccc(F)c2)cc1 (stereo not given in full),"activity change, negative = inhibition",at 60 µM (top of the series),33.4% (inactive)
COc1ccc2c3c(n(C)c2c1)[C@H](CO)N(C(=O)c1cccnc1)CC31CCN(C(=O)c2cccnc2)CC1,"activity change, negative = inhibition",at 120 µM (top of the series),0.941% (inactive)
CN1c2ccc(-c3cccc(F)c3)cc2[C@@H]2[C@@H](CCN2C(=O)C2CCCC2)[C@@H]1CO,"activity change, negative = inhibition",at 120 µM (top of the series),34.7% (inactive)
Cc1cccc(-c2ccc(C3[C@@H]4CN(C(=O)Cc5ccncc5)C[C@H]3N4)cc2)c1 (stereo not given in full),"activity change, negative = inhibition",at 60 µM (top of the series),39.4% (inactive)
N#Cc1cccc(-c2ccc(C3[C@@H]4CN(S(=O)(=O)Cc5ccccc5)C[C@H]3N4)cc2)c1 (stereo not given in full),"activity change, negative = inhibition",at 60 µM (top of the series),29.4% (inactive)
O=C(c1cccc(F)c1)N1CC[C@@H]2[C@@H](CO)Nc3ccc(C#Cc4ccc(F)cc4)cc3[C@@H]21,"activity change, negative = inhibition",at 120 µM (top of the series),38.1% (inactive)
C[C@H]1CN([C@@H](C)CO)C(=O)c2cccc(NC(=O)c3nc4ccccc4s3)c2O[C@H]1CN(C)S(=O)(=O)c1ccc(F)cc1,"activity change, negative = inhibition",at 60 µM (top of the series),0.765% (inactive)
Cc1ccc(S(=O)(=O)Nc2cccc3c2O[C@@H](CN(C)S(=O)(=O)c2ccccc2)[C@H](C)CN([C@H](C)CO)C3=O)cc1,"activity change, negative = inhibition",at 120 µM (top of the series),-24.7% (inactive)
C[C@H](CO)N1C[C@H](C)[C@@H](CN(C)S(=O)(=O)c2ccc(Cl)cc2)Oc2c(NS(=O)(=O)c3ccccc3)cccc2C1=O,"activity change, negative = inhibition",at 120 µM (top of the series),-3.11% (inactive)
Cc1ccccc1S(=O)(=O)N1CC[C@H]2[C@H](CO)Nc3ccc(-c4ccc(F)cc4)cc3[C@H]21,"activity change, negative = inhibition",at 60 µM (top of the series),13.1% (inactive)
CN(C)CC(=O)N1C[C@@H]2N[C@H](C1)C2c1ccc(/C=C/c2ccccc2)cc1 (stereo not given in full),"activity change, negative = inhibition",at 60 µM (top of the series),46.6% (inactive)
COc1ccc(-c2ccc3c(c2)[C@H]2[C@H](CCN2C(=O)Cc2cccnc2)[C@H](CO)N3C)cc1,"activity change, negative = inhibition",at 120 µM (top of the series),28.9% (inactive)
C/C=C/c1ccc(C2[C@@H]3CN(Cc4cccc(OC)c4)C[C@H]2N3)cc1 (stereo not given in full),"activity change, negative = inhibition",at 60 µM (top of the series),20.9% (inactive)
N#Cc1cccc(-c2ccc(C3[C@@H]4CN(Cc5cocn5)C[C@H]3N4)cc2)c1 (stereo not given in full),"activity change, negative = inhibition",at 120 µM (top of the series),39.4% (inactive)
Cc1cccc(-c2ccc([C@@H]3[C@@H](CO)N4CCCCN(CCC(F)(F)F)C[C@@H]34)cc2)c1,"activity change, negative = inhibition",at 30 µM (top of the series),25% (inactive)
O=C(Cc1ccccc1)N1CC[C@H]2[C@H](CO)Nc3ccc(C4=CCCCC4)cc3[C@H]21,"activity change, negative = inhibition",at 135 µM (top of the series),25.9% (inactive)
CC(=O)N1[C@@H](CO)[C@H](c2ccccc2)[C@@H]1CN(C)C(=O)CN1CCOCC1,"activity change, negative = inhibition",at 120 µM (top of the series),-5.04% (inactive)
COc1ccc(NC(=O)N2CCCCN3[C@@H](CO)[C@@H](c4ccc(-c5ccccc5C)cc4)[C@@H]3C2)cc1,"activity change, negative = inhibition",at 30 µM (top of the series),48% (inactive)
CC(=O)NC[C@@H]1[C@H](c2ccc(-c3cccc(F)c3)cc2)[C@@H](CO)N1C(C)=O,"activity change, negative = inhibition",at 120 µM (top of the series),-11.6% (inactive)
O=C(Nc1ccc(F)cc1)N1CCCCN2[C@H](C1)[C@@H](c1ccc(-c3cccc(F)c3)cc1)[C@@H]2CO,"activity change, negative = inhibition",at 120 µM (top of the series),43.3% (inactive)
COc1ccc(S(=O)(=O)N2CCCCN3[C@H](CO)[C@@H](c4ccc(C#CC(C)C)cc4)[C@H]3C2)cc1,"activity change, negative = inhibition",at 120 µM (top of the series),39.3% (inactive)
O=C(C1CCCC1)N1C[C@@H]2N[C@H](C1)C2c1ccc(-c2cccc(F)c2)cc1 (stereo not given in full),"activity change, negative = inhibition",at 60 µM (top of the series),46.7% (inactive)
C[C@H]1CN([C@@H](C)CO)C(=O)c2cccc(NC(=O)Nc3ccc(C(F)(F)F)cc3)c2O[C@@H]1CN(C)C(=O)Nc1ccc(C(F)(F)F)cc1,"activity change, negative = inhibition",at 135 µM (top of the series),33.9% (inactive)
